In patent publication US10849881B2, “Octahydro-cyclobuta[1,2-c;3,4-c′]dipyrrol-2-yl” (Hoffmann-La Roche Inc., priority 2013, dated 2020):

Biological target: ATX (human His-tagged) (Homo sapiens (Human), UniProt Q13822)
Experiment: Human ATX enzyme inhibition assay (fluorescence quenching, MR121 substrate)
Assay type: biochemical
Details: 30 nM ATX, 1 μM MR121 substrate, 30° C., pH 8.0
Method: Human ATX Enzyme Inhibition Assay
ATX inhibition was measured by a fluorescence quenching assay using a specifically labeled substrate analogue (MR121 substrate). To obtain this MR121 substrate, BOC and TBS protected 6-amino-hexanoic acid (R)-3-({2-[3-(2-{2-[2-(2-amino-ethoxy)-ethoxy]-ethoxy}-ethoxy)-propionylamino]-ethoxy}-hydroxy-phosphoryloxy)-2-hydroxy-propyl ester (Ferguson et al., Org Lett 2006, 8 (10), 2023) was labeled with MR121 fluorophore (CAS 185308-24-1, 1-(3-carboxypropyl)-11-ethyl-1,2,3,4,8,9,10,11-octahydro-dipyrido[3,2-b:2′,3′-i]phenoxazin-13-ium) on the free amine of the ethanolamine side and then, after deprotection, subsequently with tryptophan on the side of the aminohexanoic acid.
Assay working solutions were made as follows:
Assay buffer (50 mM Tris-HCl, 140 mM NaCl, 5 mM KCl, 1 mM CaCl2, 1 mM MgCl2, 0.01% Triton-X-100, pH 8.0;
ATX solution: ATX (human His-tagged) stock solution (1.08 mg/mL in 20 mM bicine, pH 8.5, 0.15 M NaCl, 10% glycerol, 0.3% CHAPS, 0.02% NaN3), diluted to 1.4-2.5× final concentration in assay buffer;
MR121 substrate solution: MR121 substrate stock solution (800 μM MR121 substrate in DMSO), diluted to 2-5× final concentration in assay buffer.
Test compounds (10 mM stock in DMSO, 8 μL) were obtained in 384 well sample plates (Corning Costar #3655) and diluted with 8 μL DMSO. Row-wise serial dilutions were made by transferring 8 μL cpd solution to the next row up to row O. The compound and control solutions were mixed five times and 2 μL were transferred to 384 well assay plates (Corning Costar #3702). Then, 15 μL of 41.7 nM ATX solution was added (30 nM final concentration), mixed five times and then incubated for 15 minutes at 30° C. 10 μL of MR121 substrate solution was added (1 μM final concentration), mixed 30 times and then incubated for 15 minutes at 30′C.

IC50 | Structure (SMILES)
8 nM | O=C(c1ccc2ccc(-c3ccccc3)cc2c1)N1C[C@@H]2[C@H](C1)[C@H]1CN(C(=O)c3ccc4[nH]nnc4c3)C[C@@H]21 [Example 1.050, [(3aS,3bS,6aR,6bR)-5-(1H-benzotriazole-5-carbonyl)-octahydro-cyclobuta[1,2-c;3,4-c′]dipyrrol-2-yl]-(7-phenyl-naphthalen-2-yl)-methanone]
31.5 nM | COCCOc1cc(C(=O)N2C[C@@H]3[C@H]4CN(C(=O)c5ccc6[nH]nnc6c5)C[C@H]4[C@@H]3C2)nc2cc(C(F)(F)F)ccc12 [Example 1.079, (1H-benzotriazol-5-yl)-{(3aS,3bR,6aS,6bR)-5-[4-(2-methoxy-ethoxy)-7-trifluoromethyl-quinoline-2-carbonyl]-octahydro-cyclobuta[1,2-c;3,4-c′]dipyrrol-2-yl}-methanone]
243 nM | Cc1ccc2cc(C(=O)N3C[C@@H]4[C@H]5CN(C(=O)c6ccc7[nH]nnc7c6)C[C@H]5[C@@H]4C3)[nH]c2c1 [Example 1.035, [(3aR,3bS,6aR,6bS)-5-(1H-benzotriazole-5-carbonyl)-octahydro-cyclobuta[1,2-c;3,4-c′]dipyrrol-2-yl]-(6-methyl-1H-indol-2-yl)-methanone]
5 nM | CCOc1cc(C(=O)N2C[C@@H]3[C@H]4CN(C(=O)c5ccc6[nH]nnc6c5)C[C@H]4[C@@H]3C2)nc2ccccc12 [Example 1.066, [(3aR,3bS,6aR,6bS)-5-(1H-benzotriazole-5-carbonyl)-octahydro-cyclobuta[1,2-c;3,4-c′]dipyrrol-2-yl]-(4-ethoxy-quinolin-2-yl)-methanone]
5 nM | CC(C)Oc1cc(C(=O)N2C[C@@H]3[C@H]4CN(C(=O)c5ccc6[nH]nnc6c5)C[C@H]4[C@@H]3C2)nc2ccccc12 [Example 1.067, [(3aR,3bS,6aR,6bS)-5-(1H-benzotriazole-5-carbonyl)-octahydro-cyclobuta[1,2-c;3,4-c′]dipyrrol-2-yl]-(4-isopropoxy-quinolin-2-yl)-methanone]
18 nM | CCOc1nc(C(=O)N2C[C@@H]3[C@H](C2)[C@H]2CN(C(=O)c4ccc5[nH]nnc5n4)C[C@@H]32)cc2ccccc12 [Example 1.092, [(3aS,3bS,6aR,6bR)-5-(1-ethoxy-isoquinoline-3-carbonyl)-octahydro-cyclobuta[1,2-c;3,4-c′]dipyrrol-2-yl]-(1H-[1,2,3]triazolo[4,5-b]pyridin-5-yl)-methanone]
6 nM | O=C(c1ccc2[nH]nnc2c1)N1C[C@@H]2[C@H](C1)[C@H]1CN(C(=O)c3ccc(-c4ccc(Cl)cc4)cn3)C[C@@H]21 [Example 1.072, [(3aR,3bS,6aR,6bS)-5-(1H-benzotriazole-5-carbonyl)-octahydro-cyclobuta[1,2-c;3,4-c′]dipyrrol-2-yl]-[5-(4-chloro-phenyl)-pyridin-2-yl]-methanone]
11.5 nM | COc1cc(C(=O)N2C[C@@H]3[C@H](C2)[C@H]2CN(C(=O)c4ccc5[nH]nnc5c4)C[C@@H]32)cc2ccccc12 [Example 1.026, [(3aS,3bS,6aR,6bR)-5-(1H-benzotriazole-5-carbonyl)-octahydro-cyclobuta[1,2-c;3,4-c′]dipyrrol-2-yl]-(4-methoxy-naphthalen-2-yl)-methanone]
1 nM | O=C(c1cc2ccccc2c(OCC2CC2)n1)N1C[C@@H]2[C@H](C1)[C@H]1CN(C(=O)[C@@H]3CCc4[nH]nnc4C3)C[C@@H]21 [Example 1.064, (1-cyclopropylmethoxy-isoquinolin-3-yl)-[(3aR,3bS,6aR,6bS)-5-((R)-4,5,6,7-tetrahydro-1H-benzotriazole-5-carbonyl)-octahydro-cyclobuta[1,2-c;3,4-c′]dipyrrol-2-yl]-methanone]
17 nM | O=C(c1ccc2cc(Br)ccc2c1)N1C[C@@H]2[C@H](C1)[C@H]1CN(C(=O)[C@@H]3CCc4[nH]nnc4C3)C[C@@H]21 [Example 1.016, (6-bromo-naphthalen-2-yl)-[(3aR,3bS,6aR,6bS)-5-((R)-4,5,6,7-tetrahydro-1H-benzotriazole-5-carbonyl)-octahydro-cyclobuta[1,2-c;3,4-c′]dipyrrol-2-yl]-methanone]
8 nM | CC(C)c1ccccc1OCC(=O)N1C[C@@H]2[C@H](C1)[C@H]1CN(C(=O)c3ccc4[nH]nnc4c3)C[C@@H]21 [Example 1.009, 1-[(3aR,3bS,6aR,6bS)-5-(1H-benzotriazole-5-carbonyl)-octahydro-cyclobuta[1,2-c;3,4-c′]dipyrrol-2-yl]-2-(2-isopropyl-phenoxy)-ethanone]
12.5 nM | CCOc1cc(C(=O)N2C[C@@H]3[C@H]4CN(C(=O)c5ccc6[nH]nnc6c5)C[C@H]4[C@@H]3C2)nc2cc(Cl)ccc12 [Example 1.076, [(3aR,3bS,6aR,6bS)-5-(1H-benzotriazole-5-carbonyl)-octahydro-cyclobuta [1,2-c;3,4-c′]dipyrrol-2-yl]-(7-chloro-4-ethoxy-quinolin-2-yl)-methanone]
173 nM | O=C(c1ccc2[nH]nnc2c1)N1C[C@@H]2[C@H](C1)[C@H]1CN(S(=O)(=O)c3ccc(-c4ccc(F)cc4)cc3)C[C@@H]21 [Example 3, (1H-Benzotriazol-5-yl)-[(3aS,3bR,6aS,6bR)-5-(4′-fluoro-biphenyl-4-sulfonyl)-octahydro-cyclobuta[1,2-c;3,4-c′]dipyrrol-2-yl]-methanone]
70 nM | COc1cc(C(=O)N2C[C@@H]3[C@H]4CN(C(=O)c5ccc6[nH]nnc6c5)C[C@H]4[C@@H]3C2)nc2ccccc12 [Example 1.029, [(3aR,3bS,6aR,6bS)-5-(1H-benzotriazole-5-carbonyl)-octahydro-cyclobuta[1,2-c;3,4-c′]dipyrrol-2-yl]-(4-methoxy-quinolin-2-yl)-methanone]
4 nM | COCCOc1cc(C(=O)N2C[C@@H]3[C@H](C2)[C@H]2CN(C(=O)c4ccc5[nH]nnc5c4)C[C@@H]32)cc2ccccc12 [Example 1.049, [(3aS,3bS,6aR,6bR)-5-(1H-benzotriazole-5-carbonyl)-octahydro-cyclobuta[1,2-c;3,4-c′]dipyrrol-2-yl]-[4-(2-methoxy-ethoxy)-naphthalen-2-yl]-methanone]
232 nM | O=C(c1ccc2[nH]nnc2c1)N1C[C@@H]2[C@H](C1)[C@H]1CN(S(=O)(=O)c3ccc4cc(Cl)ccc4c3)C[C@@H]21 [Example 3.001, (1H-Benzotriazol-5-yl)-[(3aS,3bR,6aS,6bR)-5-(6-chloro-naphthalene-2-sulfonyl)-octahydro-cyclobuta[1,2-c;3,4-c′]dipyrrol-2-yl]-methanone]
17 nM | O=C(c1ccc2[nH]nnc2c1)N1C[C@@H]2[C@H](C1)[C@H]1CN(C(=O)c3ccc(C(F)(F)F)c(OCC4CC4)n3)C[C@@H]21 [Example 1.093, (1H-benzotriazol-5-yl)-[(3aS,3bR,6aS,6bR)-5-(6-cyclopropylmethoxy-5-trifluoromethyl-pyridine-2-carbonyl)-octahydro-cyclobuta[1,2-c;3,4-c′]dipyrrol-2-yl]-methanone]

Structure (SMILES) | IC50
O=C(c1ccc2[nH]nnc2c1)N1C[C@@H]2[C@H](C1)[C@H]1CN(C(=O)c3ccc(OCC(F)(F)F)cn3)C[C@@H]21 [Example 1.101, (1H-benzotriazol-5-yl)-{(3aS,3bR,6aS,6bR)-5-[5-(2,2,2-trifluoro-ethoxy)-pyridine-2-carbonyl]-octahydro-cyclobuta[1,2-c;3,4-c′]dipyrrol-2-yl}-methanone] | 4430 nM
CCOc1cc(C(=O)N2C[C@@H]3[C@H]4CN(C(=O)c5ccc6[nH]nnc6c5)C[C@H]4[C@@H]3C2)nc2ccc(Cl)cc12 [Example 1.096, [(3aR,3bS,6aR,6bS)-5-(1H-benzotriazole-5-carbonyl)-octahydro-cyclobuta[1,2-c;3,4-c′]dipyrrol-2-yl]-(6-chloro-4-ethoxy-quinolin-2-yl)-methanone] | 12 nM
O=C(c1ccc2[nH]nnc2c1)N1C[C@@H]2[C@H](C1)[C@H]1CN(C(=O)c3cc(OCC(F)(F)F)c(C4CC4)cn3)C[C@@H]21 [Example 1.094, (1H-benzotriazol-5-yl)-{(3aS,3bR,6aS,6bR)-5-[5-cyclopropyl-4-(2,2,2-trifluoro-ethoxy)-pyridine-2-carbonyl]-octahydro-cyclobuta[1,2-c;3,4-c′]dipyrrol-2-yl}-methanone] | 77 nM
O=C(c1ccc2[nH]nnc2c1)N1C[C@@H]2[C@H](C1)[C@H]1CN(C(=O)c3cccc(OCC(F)(F)F)n3)C[C@@H]21 [Example 1.098, (1H-benzotriazol-5-yl)-{(3aS,3bR,6aS,6bR)-5-[6-(2,2,2-trifluoro-ethoxy)-pyridine-2-carbonyl]-octahydro-cyclobuta[1,2-c;3,4-c′]dipyrrol-2-yl}-methanone] | 859 nM
